# According to patent US10238633B2, “Methods for treating pulmonary emphysema using substituted 2-Aza-bicyclo[2.2.1]heptane-3-carboxylic acid (benzyl-cyano-methyl)-amides inhibitors of Cathepsin C” (Boehringer Ingelheim International GmbH, priority 2013, dated 2019):
# Test system: Neutrophil elastase activity in U937 cells
# Assay: Determination of neutrophil elastase activity in U937 cytosolic lysate preparation after incubation with test compound
# Type: cell-based
# Conditions: Homo sapiens, U-937, read-out: Reduction of NE-activity in U937 cells IC50
# Experimental: Determination of Neutrophil Elastase Activity in U937 Cytosolic Lysate Preparation after Incubation with Test Compound
# Optiplate 384F were purchased from PerkinElmer (Prod. No. #6007270). 24 well Nunclon cell culture plates (No. 142475) and 96 well plates (No. 267245) were from Nunc. Dimethylsulfoxid (DMSO) was from Sigma (Prod. No. D8418). Nonidet-P40 (NP40) was from USBiological (Prod. No. N3500)
# Substrate, specific for Neutrophil elastase, was from Bachem (MeOSuc-Ala-Ala-Pro-Val-AMC; Prod. No. 1-1270).
# Human neutrophil elastase was from Calbiochem (Prod. No. 324681)
# Tris-buffer (100 mM Tris; 1M NaCL; pH 7.5)
# Tris-buffer+HSA 0.1%; Human Serum Albumin from Calbiochem (Cat#. 126658)
# Serine-protease buffer (20 mM Tris; 100 mM NaCL; pH 7.5)+0.1% HSA
# Serine protease lysis buffer: 20 mM Tris-HCL; 100 mM NaCl pH 7.5; +0.2% Nonidet-P40;
# PBS: phosphate buffered saline, without Ca and Mg, from Gibco
# U937 from ECACC (Cat. No. 85011440) cultured in suspension at 37° C. and 5% CO2.
# Cell density: 0.2-1 Mio. Cells/ml.
# Medium: RPMI1640 GlutaMAX (No. 61870) with 10% FCS from Gibco
# Cell Seeding and Treatment:
# Compounds in 100% DMSO were diluted in Medium (—FCS) with 10% DMSO and further diluted according to the experiment planned.
# 20 μl of the compound solution was transferred in the respective wells of the 24 well plate and diluted with 2 ml cell suspension/well containing […] (final concentration of DMSO=0.1%). Compound dilution factor=100
# Compounds (up to 7 concentrations) were tested in triplicates with 3 wells for the DMSO 0.1% control, incubated for 48 hours without medium change at 37° C., 5% CO2 and 95% relative humidity.
# Cell Harvesting and Cell Lysate:
# Transfer the cell suspension in 2.2 ml Eppendorf cups. Separate cells from medium by centrifugation (400×g; 5 min; RT); discard the supernatant. Resuspend in 1 ml PBS; centrifugation (400×g; 5 min; RT); wash cells twice with PBS. Add 100 μl Serin lysis buffer (ice cold) to the cell pellet; resuspend the pellet and store on ice for 15 minutes. Remove debris by centrifugation at 15000×g for 10 min at 4° C. Transfer 80-100 μl lysate supernatant in 96 well plate and store immediately at −80° C.
# Neutrophil Elastase Activity Assay:
# Frozen lysates were thawn at 37° C. for 10 minutes and stored on ice. Protein content was determined with Bradford protein assay. Lysates were diluted to 0.2-0.5 mg/ml protein in serine protease buffer+HSA.
# Standard: NE (100 μg/ml stock solution in Tris-buffer; stored at −80° C.) was diluted in Tris-buffer+HSA to 750 ng/ml, and further serially diluted 1:2 for the standard curve.
# Buffer, blank, standard and lysate samples were transferred into 384 well plate
# Blank: 5 μl Tris-buffer+10 μl Tris-buffer+HSA+5 μl Substrate
# Standard: 5 μl Tris-buffer+10 μl NE (diff. conc.)+5 μl Substrate
# Lysate: 5 μl Tris-buffer+10 μl Lysat+[…] Substrate
# The increase in fluorescence (Ex360 nm/Em 460 nm) is determined over 30 minutes with a Molecular Device Spectramax M5 Fluorescence Reader. Kinetic Reduction (Vmax units/sec); 4 vmax points. The amount of neutrophil elastase (ng/ml) is calculated using the standard curve and the Spectramax software. The result is interpolated to ng/mg lysate protein using excel formula functions. […] IC50 is calculated using Graphpad Prism; nonlinear fitting (log(inhibitor) vs. response—Variable slope).
row,SMILES,IC50 [nM]
1,"CN1C(=O)Cc2ccc(-c3ccc(C[C@@H](C#N)NC(=O)[C@H]4N[C@@H]5CC[C@H]4C5)c(F)c3)cc21 [Example 2, (1S,2S,4R)—N-[(1S)-1-cyano-2-[2-fluoro-4-(1-methyl-2-oxo-indolin-6-yl)phenyl]ethyl]-3-azabicyclo[2.2.1]heptane-2-carboxamide]",6.2
2,"CS(=O)(=O)c1cccc(-c2ccc(C[C@@H](C#N)NC(=O)[C@H]3N[C@@H]4CC[C@H]3C4)c(F)c2)c1 [Example 4, (1S,2S,4R)—N-[(1S)-1-cyano-2-[2-fluoro-4-(3-methylsulfonylphenyl)phenyl]ethyl]-3-azabicyclo[2.2.1]heptane-2-carboxamide]",6.4
3,N#CC(Cc1ccc(-c2ccc3c(c2)COC3=O)cc1F)NC(=O)[C@H]1N[C@@H]2CC[C@H]1C2 (some centres unmarked) [Example 11],8.7
4,CS(=O)(=O)c1ccc(-c2ccc(C[C@@H](C#N)NC(=O)[C@H]3N[C@@H]4CC[C@H]3C4)c(F)c2)cc1 [Example 16],14.5
5,N#C[C@H](Cc1ccc(-c2ccc3c(c2)NC(=O)C3)cc1F)NC(=O)[C@H]1N[C@@H]2CC[C@H]1C2 [Example 29],8.8
6,CN1CCc2cc(-c3ccc(C[C@@H](C#N)NC(=O)[C@H]4N[C@@H]5CC[C@H]4C5)c(F)c3)ccc2C1=O [Example 42],8.3
7,N#C[C@H](Cc1ccc(N2CCN3CCOCC3C2)cc1F)NC(=O)[C@H]1N[C@@H]2CC[C@H]1C2 (some centres unmarked) [Example 43],9.2
8,N#C[C@H](Cc1ccc(N2CCN(CC3CCCO3)CC2)cc1F)NC(=O)[C@H]1N[C@@H]2CC[C@H]1C2 (some centres unmarked) [Example 154],4.6
9,COCCN1C(=O)Cc2ccc(-c3ccc(C[C@@H](C#N)NC(=O)[C@H]4N[C@@H]5CC[C@H]4C5)c(F)c3)cc21 [Example 158],8.8
10,CN1Cc2cc(-c3ccc(C[C@@H](C#N)NC(=O)[C@H]4N[C@@H]5CC[C@H]4C5)c(F)c3)ccc2S1(=O)=O [Example 169],9.1
11,N#C[C@H](Cc1ccc(-c2ccc(S(=O)(=O)N3CCCCC3)cc2)cc1F)NC(=O)[C@H]1N[C@@H]2CC[C@H]1C2 [Example 177],9.2
12,COCCN1CCN(c2ccc(C[C@@H](C#N)NC(=O)[C@H]3N[C@@H]4CC[C@H]3C4)c(F)c2)CC1 [Example 182],8.1
13,CN1CCN(C(=O)c2ccc(-c3ccc(C[C@@H](C#N)NC(=O)[C@H]4N[C@@H]5CC[C@H]4C5)c(F)c3)cc2)CC1 [Example 185],3.9
14,N#C[C@H](Cc1ccc(N2CCN(C3CC3)CC2)cc1F)NC(=O)[C@H]1N[C@@H]2CC[C@H]1C2 [Example 187],7.3

# Now those with a lower IC50, led by results:
row,IC50 [nM],SMILES
1,2.3,"CN1Cc2ccc(-c3ccc(C[C@@H](C#N)NC(=O)[C@H]4N[C@@H]5CC[C@H]4C5)c(F)c3)cc2C1 [Example 1, (1S,2S,4R)—N-[(1S)-1-cyano-2-[2-fluoro-4-(2-methylisoindolin-5-yl)phenyl]ethyl]-3-azabicyclo[2.2.1]heptane-2-carboxamide]"
2,2.9,"N#C[C@H](Cc1ccc(-c2ccc3c(c2)COC3=O)cc1F)NC(=O)[C@H]1N[C@@H]2CC[C@H]1C2 [Example 3, (1S,2S,4R)—N-[(1S)-1-cyano-2-[2-fluoro-4-(1-oxo-3H-isobenzofuran-5-yl)phenyl]ethyl]-3-azabicyclo[2.2.1]heptane-2-carboxamide]"
3,2.4,"CN1CCN(c2ccc(C[C@@H](C#N)NC(=O)[C@H]3N[C@@H]4CC[C@H]3C4)c(F)c2)CC1 [Example 6, (1S,2S,4R)—N-[(1S)-1-cyano-2-[2-fluoro-4-(4-methylpiperazin-1-yl)phenyl]ethyl]-3-azabicyclo[2.2.1]heptane-2-carboxamide]"
4,0.5,CN1CCN(S(=O)(=O)c2ccc(-c3ccc(C[C@@H](C#N)NC(=O)[C@H]4N[C@@H]5CC[C@H]4C5)c(F)c3)cc2)CC1 [Example 155]
5,2.3,CC1(C)OC(=O)c2ccc(-c3ccc(C[C@@H](C#N)NC(=O)[C@H]4N[C@@H]5CC[C@H]4C5)c(F)c3)cc21 [Example 156]
6,3.6,COCCN1CCN(c2ccc(C[C@@H](C#N)NC(=O)[C@H]3N[C@@H]4CC[C@H]3C4)c(F)c2)CC1C (some centres unmarked) [Example 178]
